In US20220411471A1, “CELL-PERMEABLE CYCLIC PEPTIDES AND USES THEREOF” (Unnatural Products Inc., priority 2019, published 2022):
Non-standard residues stand in square brackets, D forms with d. Residues, ends and D or L forms follow the SMILES beside them. Phe(4-Cl) = N[C@@H](Cc1ccc(Cl)cc1)C(=O)O; Phe(3-F) = N[C@@H](Cc1cccc(F)c1)C(=O)O; Phe(4-F) = N[C@@H](Cc1ccc(F)cc1)C(=O)O; 3Pal = N[C@@H](Cc1cccnc1)C(=O)O; 2Thi = N[C@@H](Cc1cccs1)C(=O)O; NMeL = CN[C@@H](CC(C)C)C(=O)O; dNMeV = CN[C@@H](C(=O)O)C(C)C; NMeNle = CCCC[C@H](NC)C(=O)O; Tle = CC(C)(C)[C@H](N)C(=O)O; NMeV = CN[C@H](C(=O)O)C(C)C; dPip = O=C(O)[C@H]1CCCCN1; NMeA = CN[C@@H](C)C(=O)O; Nme = COCCNCC(=O)O

Molecular target: T1, Human MDM2 (HDM2) 1-116 (Homo sapiens, UniProt Q00987)
T1 construct: Human MDM2 (HDM2) 1-116
Assay: Fluorescence polarization assay, MDM2/p53 (Table 3)
Format: binding
Experimental: (§1) Human MDM2 (HDM2) 1-116 (20 μL) and FITC-labeled p53 (18-26), 50 nM and 10 nM respectively in 10 mM Tris, 50 mM NaCl, 0.01% Tween20, and 1 mM DTT at pH 7.4 were dispensed into an opaque, black, 384 well plate. Compounds dissolved in DMSO were pin transferred (˜200 nL) to the 384 well plate containing the MDM2/p53 solution. After incubation for 10 minutes, the fluorescence polarization was read on a Molecular Devices SpectraMax plate reader equipped with a Fluorescein FP cartridge. In addition to probe alone (positive control) and probe/MDM2 (negative control), a titration of linear p53(18-26) was included on every plate as an additional control. IC50 values were fit using either Prism or Collaborative Drug Discovery.
as §1, with “and FAM-labeled RFMDYWEGL-NH2,” for “and FITC-labeled p53 (18-26),”, “NaCl, 0.010%” for “NaCl, 0.01%”, “transferred (˜100-200” for “transferred (˜200”, “for 60” for “for 10”

T1 sequence (Q00987 1-116): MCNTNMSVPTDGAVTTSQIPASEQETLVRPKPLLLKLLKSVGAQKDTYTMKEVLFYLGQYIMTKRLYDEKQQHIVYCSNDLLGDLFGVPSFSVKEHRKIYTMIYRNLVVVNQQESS

Row | IC50 [µM] | Compound
1 | 1 to 2.5 | CC(C)[C@H]1C(=O)N[C@@H](Cc2cccnc2)C(=O)N2CCC[C@@H]2C(=O)N(C)[C@@H](C)C(=O)N[C@@H](Cc2ccc(F)cc2)C(=O)N[C@@H](C(C)(C)C)C(=O)N[C@@H](Cc2ccc(Cl)cc2)C(=O)N2CCCC[C@@H]2C(=O)N2CCC[C@H]2C(=O)N[C@@H](Cc2ccccc2)C(=O)N1C [Compound 27, CC(C)[C@@H]1N(C)C(=O)[C@H](Cc2ccccc2)NC(=O)[C@@H]2CCCN2C(=O)[C@H]2CCCCN2C(=O)[C@H](Cc2ccc(Cl)cc2)NC(=O)[C@@H](NC(=O)[C@H](Cc2ccc(F)cc2)NC(=O)[C@H](C)N(C)C(=O)[C@H]2CCCN2C(=O)[C@H](Cc2cccnc2)NC1=O)C(C)(C)C] (cyclo([3Pal][dP][NMeA][Phe(4-F)][Tle][Phe(4-Cl)][dPip]PF[NMeV]))
2 | 1 to 2.5 | COCCN1CC(=O)N(C)[C@@H](C)C(=O)N[C@@H](Cc2ccc(F)cc2)C(=O)N(C)[C@@H](C)C(=O)N[C@@H](Cc2ccc(Cl)cc2)C(=O)N2CCCC[C@@H]2C(=O)N2CCC[C@H]2C(=O)N[C@@H](Cc2ccccc2)C(=O)N[C@@H](C(C)(C)C)C(=O)N[C@@H](Cc2cccc(F)c2)C1=O [Compound 22, COCCN1CC(=O)N(C)[C@@H](C)C(=O)N[C@@H](Cc2ccc(F)cc2)C(=O)N(C)[C@@H](C)C(=O)N[C@@H](Cc2ccc(Cl)cc2)C(=O)N2CCCC[C@@H]2C(=O)N2CCC[C@H]2C(=O)N[C@@H](Cc2ccccc2)C(=O)N[C@H](C(=O)N[C@@H](Cc2cccc(F)c2)C1=O)C(C)(C)C] (cyclo(F[Tle][Phe(3-F)][Nme][NMeA][Phe(4-F)][NMeA][Phe(4-Cl)][dPip]P))
3 | 1 to 2.5 | COCCN1CC(=O)N(C)[C@@H](C)C(=O)N[C@@H](Cc2ccc(F)cc2)C(=O)N(C)[C@@H](C)C(=O)N[C@@H](Cc2ccc(Cl)cc2)C(=O)N2CCCC[C@@H]2C(=O)N2CCC[C@H]2C(=O)N[C@@H](Cc2ccccc2)C(=O)N[C@@H](C(C)(C)C)C(=O)N[C@@H](Cc2cccnc2)C1=O [Compound 21, COCCN1CC(=O)N(C)[C@@H](C)C(=O)N[C@@H](Cc2ccc(F)cc2)C(=O)N(C)[C@@H](C)C(=O)N[C@@H](Cc2ccc(Cl)cc2)C(=O)N2CCCC[C@@H]2C(=O)N2CCC[C@H]2C(=O)N[C@@H](Cc2ccccc2)C(=O)N[C@H](C(=O)N[C@@H](Cc2cccnc2)C1=O)C(C)(C)C] (cyclo([3Pal][Nme][NMeA][Phe(4-F)][NMeA][Phe(4-Cl)][dPip]PF[Tle]))
4 | < 1 | C[C@H]1C(=O)N[C@@H](Cc2ccc(Cl)cc2)C(=O)N2CCCC[C@@H]2C(=O)N2CCC[C@H]2C(=O)N[C@@H](Cc2cccnc2)C(=O)N[C@@H](CCC(=O)O)C(=O)N[C@@H](Cc2ccc(O)cc2)C(=O)N2CCC[C@@H]2C(=O)N(C)[C@@H](C)C(=O)N[C@@H](Cc2ccc(F)cc2)C(=O)N1C [Compound 16, [H]OC(=O)CC[C@@H]1NC(=O)[C@H](Cc2cccnc2)NC(=O)[C@@H]2CCCN2C(=O)[C@H]2CCCCN2C(=O)[C@H](Cc2ccc(Cl)cc2)NC(=O)[C@H](C)N(C)C(=O)[C@H](Cc2ccc(F)cc2)NC(=O)[C@H](C)N(C)C(=O)[C@H]2CCCN2C(=O)[C@H](Cc2ccc(O[H])cc2)NC1=O] (cyclo([3Pal]EY[dP][NMeA][Phe(4-F)][NMeA][Phe(4-Cl)][dPip]P))
5 | < 1 | COCCN1CC(=O)N[C@@H](Cc2ccc(Cl)cc2)C(=O)N2CCCC[C@@H]2C(=O)N2CCC[C@H]2C(=O)N[C@@H](Cc2cccs2)C(=O)N[C@@H](C(C)(C)C)C(=O)N[C@@H](Cc2cccnc2)C(=O)N2CCC[C@@H]2C(=O)N(C)[C@@H](C)C(=O)N[C@@H](Cc2ccc(F)cc2)C1=O [Compound 25, COCCN1CC(=O)N[C@@H](Cc2ccc(Cl)cc2)C(=O)N2CCCC[C@@H]2C(=O)N2CCC[C@H]2C(=O)N[C@@H](Cc2cccs2)C(=O)N[C@H](C(=O)N[C@@H](Cc2cccnc2)C(=O)N2CCC[C@@H]2C(=O)N(C)[C@@H](C)C(=O)N[C@@H](Cc2ccc(F)cc2)C1=O)C(C)(C)C] (cyclo([2Thi][Tle][3Pal][dP][NMeA][Phe(4-F)][Nme][Phe(4-Cl)][dPip]P))
6 | < 1 | COCCN1CC(=O)N(C)[C@@H](C)C(=O)N[C@@H](Cc2ccc(F)cc2)C(=O)N(C)[C@@H](C)C(=O)N[C@@H](Cc2ccc(Cl)cc2)C(=O)N(C)[C@H](C(C)C)C(=O)N2CCC[C@H]2C(=O)N[C@@H](Cc2ccccc2)C(=O)N[C@@H](C(C)(C)C)C(=O)N[C@@H](Cc2cccnc2)C1=O [Compound 23, COCCN1CC(=O)N(C)[C@@H](C)C(=O)N[C@@H](Cc2ccc(F)cc2)C(=O)N(C)[C@@H](C)C(=O)N[C@@H](Cc2ccc(Cl)cc2)C(=O)N(C)[C@H](C(C)C)C(=O)N2CCC[C@H]2C(=O)N[C@@H](Cc2ccccc2)C(=O)N[C@H](C(=O)N[C@@H](Cc2cccnc2)C1=O)C(C)(C)C] (cyclo([3Pal][Nme][NMeA][Phe(4-F)][NMeA][Phe(4-Cl)][dNMeV]PF[Tle]))
7 | ≥ 5 | CCCC[C@H]1C(=O)N[C@@H](Cc2ccccc2)C(=O)N2CCC[C@@H]2C(=O)N2CCC[C@H]2C(=O)N[C@@H](Cc2ccccc2)C(=O)N(C)[C@@H](CCCC)C(=O)N[C@@H](Cc2c[nH]c3ccccc23)C(=O)N(C)[C@@H](CC(C)C)C(=O)N[C@@H](CC(=O)O)C(=O)N[C@@H](Cc2c[nH]c3ccccc23)C(=O)N1C [Compound 7, [H]OC(=O)C[C@@H]1NC(=O)[C@H](CC(C)C)N(C)C(=O)[C@H](Cc2cn([H])c3ccccc23)NC(=O)[C@H](CCCC)N(C)C(=O)[C@H](Cc2ccccc2)NC(=O)[C@@H]2CCCN2C(=O)[C@H]2CCCN2C(=O)[C@H](Cc2ccccc2)NC(=O)[C@H](CCCC)N(C)C(=O)[C@H](Cc2cn([H])c3ccccc23)NC1=O] (cyclo(F[NMeNle]W[NMeL]DW[NMeNle]F[dP]P))
8 | < 1 | CC(C)C[C@H]1C(=O)N[C@@H](CC(=O)O)C(=O)N[C@@H](Cc2ccc(F)cc2)C(=O)N[C@@H](CCC(=O)O)C(=O)N[C@@H](Cc2ccccc2)C(=O)N2CCC[C@@H]2C(=O)N2CCC[C@H]2C(=O)N[C@@H](Cc2cccs2)C(=O)N[C@@H](CCC(=O)O)C(=O)N[C@@H](Cc2c[nH]c3ccccc23)C(=O)N1C [Compound 5, [H]OC(=O)CC[C@@H]1NC(=O)[C@H](Cc2cccs2)NC(=O)[C@@H]2CCCN2C(=O)[C@H]2CCCN2C(=O)[C@H](Cc2ccccc2)NC(=O)[C@H](CCC(=O)O[H])NC(=O)[C@H](Cc2ccc(F)cc2)NC(=O)[C@H](CC(=O)O[H])NC(=O)[C@H](CC(C)C)N(C)C(=O)[C@H](Cc2cn([H])c3ccccc23)NC1=O] (cyclo([2Thi]EW[NMeL]D[Phe(4-F)]EF[dP]P))
9 | < 1 | CC(C)C[C@H]1C(=O)N[C@@H](CC(=O)O)C(=O)N[C@@H](Cc2c[nH]c3ccccc23)C(=O)N[C@@H](CCC(=O)O)C(=O)N[C@@H](Cc2ccccc2)C(=O)N2CCC[C@@H]2C(=O)N2CCC[C@H]2C(=O)N[C@@H](Cc2ccc(F)cc2)C(=O)N[C@@H](CCC(=O)O)C(=O)N[C@@H](Cc2ccc(Cl)cc2)C(=O)N1C [Compound 6, [H]OC(=O)CC[C@@H]1NC(=O)[C@H](Cc2cn([H])c3ccccc23)NC(=O)[C@H](CC(=O)O[H])NC(=O)[C@H](CC(C)C)N(C)C(=O)[C@H](Cc2ccc(Cl)cc2)NC(=O)[C@H](CCC(=O)O[H])NC(=O)[C@H](Cc2ccc(F)cc2)NC(=O)[C@@H]2CCCN2C(=O)[C@H]2CCCN2C(=O)[C@H](Cc2ccccc2)NC1=O] (cyclo([Phe(4-F)]E[Phe(4-Cl)][NMeL]DWEF[dP]P))
10 | < 1 | COCCN1CC(=O)N(C)[C@@H](C)C(=O)N[C@@H](Cc2ccc(F)cc2)C(=O)N(C)[C@@H](C)C(=O)N[C@@H](Cc2ccc(Cl)cc2)C(=O)N(C)[C@H](C(C)C)C(=O)N2CCC[C@H]2C(=O)N[C@@H](Cc2cccs2)C(=O)N[C@@H](C(C)(C)C)C(=O)N[C@@H](Cc2cccnc2)C1=O [Compound 17, COCCN1CC(=O)N(C)[C@@H](C)C(=O)N[C@@H](Cc2ccc(F)cc2)C(=O)N(C)[C@@H](C)C(=O)N[C@@H](Cc2ccc(Cl)cc2)C(=O)N(C)[C@H](C(C)C)C(=O)N2CCC[C@H]2C(=O)N[C@@H](Cc2cccs2)C(=O)N[C@H](C(=O)N[C@@H](Cc2cccnc2)C1=O)C(C)(C)C] (cyclo([2Thi][Tle][3Pal][Nme][NMeA][Phe(4-F)][NMeA][Phe(4-Cl)][dNMeV]P))

Row | Compound | IC50 [µM]
11 | COCCN1CC(=O)N(C)[C@@H](C)C(=O)N[C@@H](Cc2ccc(F)cc2)C(=O)N(C)[C@@H](C)C(=O)N[C@@H](Cc2ccc(Cl)cc2)C(=O)N2CCCC[C@@H]2C(=O)N2CCC[C@H]2C(=O)N[C@@H](Cc2ccccc2)C(=O)N[C@@H](C(C)(C)C)C(=O)N[C@@H](Cc2ccc(O)cc2)C1=O [Compound 30, [H]Oc1ccc(C[C@@H]2NC(=O)[C@@H](NC(=O)[C@H](Cc3ccccc3)NC(=O)[C@@H]3CCCN3C(=O)[C@H]3CCCCN3C(=O)[C@H](Cc3ccc(Cl)cc3)NC(=O)[C@H](C)N(C)C(=O)[C@H](Cc3ccc(F)cc3)NC(=O)[C@H](C)N(C)C(=O)CN(CCOC)C2=O)C(C)(C)C)cc1] (cyclo(F[Tle]Y[Nme][NMeA][Phe(4-F)][NMeA][Phe(4-Cl)][dPip]P)) | 2.5 to 5
